# Data published in PubChem BioAssay AID180 (DTP/NCI, 2004).
# Tested on: BDF1 mice, Adenocarcinoma 755 s.c., tumor weight T/C
# Assay: NCI In Vivo Anticancer Drug Screen. Data for tumor model Adenocarcinoma 755 (subcutaneous) in B6D2F1 (BDF1) mice
# Details: endpoint: mean tumor weight, higher = larger tumour
# Procedure, shortened: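 Values express treated (T) relative to vehicle-dosed control (C) animals, based on survival or tumour size measured after compound treatment of mice bearing a transplanted tumour.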
# [1] = dose: 25.0 mg/kg/injection, schedule: Q01DX011 (ip), vehicle: methylcellulose (MC)
# [2] = dose: 50.0 mg/kg/injection, schedule: Q01DX011 (ip), vehicle: methylcellulose (MC)
# [3] = dose: 100.0 mg/kg/injection, schedule: Q01DX011 (ip), vehicle: methylcellulose (MC)
# [4] = dose: 200.0 mg/kg/injection, schedule: Q01DX011 (ip), vehicle: methylcellulose (MC)
# [5] = dose: 30.0 mg/kg/injection, schedule: Q01DX011 (ip), vehicle: carboxymethylcellulose (CMC)
# [6] = dose: 60.0 mg/kg/injection, schedule: Q01DX011 (ip), vehicle: carboxymethylcellulose (CMC)
# [7] = dose: 120.0 mg/kg/injection, schedule: Q01DX011 (ip), vehicle: carboxymethylcellulose (CMC)
# [8] = dose: 25.0 mg/kg/injection, schedule: Q01DX011 (ip), vehicle: carboxymethylcellulose (CMC)
# [9] = dose: 75.0 mg/kg/injection, schedule: Q01DX011 (ip), vehicle: carboxymethylcellulose (CMC)
# [10] = dose: 15.0 mg/kg/injection, schedule: Q01DX011 (ip), vehicle: methylcellulose (MC)
# [11] = dose: 62.0 mg/kg/injection, schedule: Q01DX011 (ip), vehicle: methylcellulose (MC)
smiles,measurement,setting,value
CN(Cc1cnc2nc(N)nc(N)c2n1)c1ccc(C(=O)N[C@@H](CCC(=O)O)C(=O)O)cc1,T/C,"dose: 0.56 mg/kg/injection, schedule: Q01DX011 (ip), vehicle: carboxymethylcellulose (CMC)",94 % of control
same,T/C,"dose: 0.84 mg/kg/injection, schedule: Q01DX011 (ip), vehicle: carboxymethylcellulose (CMC)",57 % of control
same,T/C,"dose: 1.0 mg/kg/injection, schedule: Q01DX011 (ip), vehicle: other",77 % of control
same,T/C,"dose: 1.05 mg/kg/injection, schedule: Q01DX011 (ip), vehicle: carboxymethylcellulose (CMC)",48 % of control
same,T/C,"dose: 1.13 mg/kg/injection, schedule: Q01DX011 (ip), vehicle: carboxymethylcellulose (CMC)",48 % of control
same,T/C,"dose: 1.4 mg/kg/injection, schedule: Q01DX011 (ip), vehicle: carboxymethylcellulose (CMC)",36 % of control
same,T/C,"dose: 2.0 mg/kg/injection, schedule: Q01DX011 (ip), vehicle: carboxymethylcellulose (CMC)",49 % of control
same,T/C,"dose: 2.0 mg/kg/injection, schedule: Q01DX011 (ip), vehicle: other",43 % of control
same,T/C,"dose: 2.1 mg/kg/injection, schedule: Q01DX011 (ip), vehicle: carboxymethylcellulose (CMC)",27 % of control
same,T/C,"dose: 2.25 mg/kg/injection, schedule: Q01DX011 (ip), vehicle: carboxymethylcellulose (CMC)",96 % of control
same,T/C,"dose: 4.5 mg/kg/injection, schedule: Q01DX011 (ip), vehicle: carboxymethylcellulose (CMC)",48 % of control
same,T/C,"dose: 263.0 micrograms/kg/injection, schedule: Q01DX011 (ip), vehicle: carboxymethylcellulose (CMC)",66 % of control
same,T/C,"dose: 525.0 micrograms/kg/injection, schedule: Q01DX011 (ip), vehicle: carboxymethylcellulose (CMC)",53 % of control
same,T/C,"dose: 563.0 micrograms/kg/injection, schedule: Q01DX011 (ip), vehicle: carboxymethylcellulose (CMC)",63 % of control
same,T/C,"dose: 1050.0 micrograms/kg/injection, schedule: Q01DX011 (ip), vehicle: carboxymethylcellulose (CMC)",68 % of control
same,T/C,"dose: 1125.0 micrograms/kg/injection, schedule: Q01DX011 (ip), vehicle: carboxymethylcellulose (CMC)",97 % of control
same,T/C,"dose: 2100.0 micrograms/kg/injection, schedule: Q01DX011 (ip), vehicle: carboxymethylcellulose (CMC)",31 % of control
same,T/C,"dose: 2250.0 micrograms/kg/injection, schedule: Q01DX011 (ip), vehicle: carboxymethylcellulose (CMC)",68 % of control
CCCn1cnc2c(SCC(=O)O)nc(N)nc21,T/C,[1],58 % of control
same,T/C,[2],37 % of control
same,T/C,[3],46 % of control
same,T/C,[4],36 % of control
CC[C@]1(O)C[C@H]2CN(CCc3c([nH]c4ccccc34)[C@@](C(=O)OC)(c3cc4c(cc3OC)N(C=O)[C@H]3[C@@](O)(C(=O)OC)[C@H](OC(C)=O)[C@]5(CC)C=CCN6CC[C@]43[C@@H]65)C2)C1,T/C,"dose: 0.06 mg/kg/injection, schedule: Q01DX011 (ip), vehicle: saline",95 % of control
same,T/C,"dose: 0.12 mg/kg/injection, schedule: Q01DX011 (ip), vehicle: saline",173 % of control
same,T/C,"dose: 0.25 mg/kg/injection, schedule: Q01DX011 (ip), vehicle: saline",54 % of control
Nc1ncnc2c1ncn2CCO,T/C,[1],52 % of control
same,T/C,[2],76 % of control
same,T/C,[3],67 % of control
Nc1ncnc(F)c1N,T/C,"dose: 15.5 mg/kg/injection, schedule: Q01DX011 (ip), vehicle: carboxymethylcellulose (CMC)",106 % of control
same,T/C,[5],96 % of control
same,T/C,[6],123 % of control
same,T/C,[7],89 % of control
CC1CCN(C(=O)CCCl)c2ccccc21 (stereo not given),T/C,[1],101 % of control
same,T/C,"dose: 75.0 mg/kg/injection, schedule: Q01DX011 (ip), vehicle: methylcellulose (MC)",71 % of control
same,T/C,"dose: 225.0 mg/kg/injection, schedule: Q01DX011 (ip), vehicle: methylcellulose (MC)",82 % of control
CN(C)S(=O)(=O)c1nc(Cl)c2[nH]cnc2n1,T/C,[8],98 % of control
same,T/C,[9],89 % of control
same,T/C,"dose: 225.0 mg/kg/injection, schedule: Q01DX011 (ip), vehicle: carboxymethylcellulose (CMC)",58 % of control
COc1cc(C(=O)O)nc(SC)n1,T/C,[10],115 % of control
same,T/C,"dose: 31.0 mg/kg/injection, schedule: Q01DX011 (ip), vehicle: methylcellulose (MC)",94 % of control
same,T/C,[11],88 % of control
same,T/C,"dose: 125.0 mg/kg/injection, schedule: Q01DX011 (ip), vehicle: methylcellulose (MC)",87 % of control
CC1(C)C(=O)CC[C@@]2(C)C1=CC[C@@H]1[C@@H]2CC[C@@]2(C)[C@H]1CC[C@]2(C)O,T/C,"dose: 25.0 mg/kg/injection, schedule: Q01DX011 (sc), vehicle: steriod suspending solution",105 % of control
same,T/C,"dose: 200.0 mg/kg/injection, schedule: Q01DX011 (sc), vehicle: steriod suspending solution",92 % of control
same,T/C,"dose: 400.0 mg/kg/injection, schedule: Q01DX011 (sc), vehicle: steriod suspending solution",87 % of control
COc1ccc(-n2cnc3c(N)nc(N)nc32)cc1,T/C,[1],68 % of control
same,T/C,[2],62 % of control
same,T/C,[3],50 % of control
same,T/C,[4],57 % of control
CSc1nc(N)nc2c1ncn2C1OC(CO)C(O)C1O (stereo not given),T/C,"dose: 8.2 mg/kg/injection, schedule: Q01DX011 (ip), vehicle: carboxymethylcellulose (CMC)",82 % of control
same,T/C,"dose: 16.5 mg/kg/injection, schedule: Q01DX011 (ip), vehicle: carboxymethylcellulose (CMC)",53 % of control
same,T/C,"dose: 33.0 mg/kg/injection, schedule: Q01DX011 (ip), vehicle: carboxymethylcellulose (CMC)",20 % of control
same,T/C,"dose: 66.0 mg/kg/injection, schedule: Q01DX011 (ip), vehicle: carboxymethylcellulose (CMC)",9 % of control
same,T/C,"dose: 66.25 mg/kg/injection, schedule: Q01DX011 (ip), vehicle: methylcellulose (MC)",9 % of control
same,T/C,"dose: 112.5 mg/kg/injection, schedule: Q01DX011 (ip), vehicle: methylcellulose (MC)",4 % of control
[N-]=[N+]=CC(=O)NCC(=O)NN,T/C,"dose: 62.5 mg/kg/injection, schedule: Q01DX011 (ip), vehicle: saline",115 % of control
same,T/C,"dose: 250.0 mg/kg/injection, schedule: Q01DX011 (ip), vehicle: saline",39 % of control
same,T/C,"dose: 500.0 mg/kg/injection, schedule: Q01DX011 (ip), vehicle: saline",43 % of control
Nc1nc(Nc2ccccc2Cl)cc(=O)[nH]1,T/C,[10],119 % of control
same,T/C,[11],95 % of control
CCCOC(=O)C1(N)CCCC1,T/C,"dose: 12.5 mg/kg/injection, schedule: Q01DX011 (ip), vehicle: carboxymethylcellulose (CMC)",79 % of control
same,T/C,[8],44 % of control
same,T/C,"dose: 50.0 mg/kg/injection, schedule: Q01DX011 (ip), vehicle: carboxymethylcellulose (CMC)",24 % of control
same,T/C,"dose: 100.0 mg/kg/injection, schedule: Q01DX011 (ip), vehicle: carboxymethylcellulose (CMC)",7 % of control
Cc1ccc(/C=N/Nc2nc3c([nH]2)c(=O)n(C)c(=O)n3C)cc1,T/C,[5],95 % of control
same,T/C,[6],115 % of control
same,T/C,[7],112 % of control
same,T/C,"dose: 240.0 mg/kg/injection, schedule: Q01DX011 (ip), vehicle: carboxymethylcellulose (CMC)",81 % of control
CCOc1nc(N)nc2n[nH]nc12,T/C,[9],67 % of control
same,T/C,"dose: 150.0 mg/kg/injection, schedule: Q01DX011 (ip), vehicle: carboxymethylcellulose (CMC)",9 % of control
Cc1n[nH]c(=O)[nH]c1=O,T/C,"dose: 400.0 mg/kg/injection, schedule: Q01DX011 (ip), vehicle: other",59 % of control
same,T/C,"dose: 800.0 mg/kg/injection, schedule: Q01DX011 (ip), vehicle: other",72 % of control
Cc1ccc(S(=O)(=O)NCCCCC(Nc2ncnc3nc[nH]c23)C(=O)O)cc1 (stereo not given),T/C,"dose: 25.0 mg/kg/injection, schedule: Q01DX011 (ip), vehicle: saline",81 % of control
same,T/C,"dose: 75.0 mg/kg/injection, schedule: Q01DX011 (ip), vehicle: saline",21 % of control
same,T/C,"dose: 225.0 mg/kg/injection, schedule: Q01DX011 (ip), vehicle: saline",4 % of control
